According to US4028185A, “Method for producing L(+)-tartaric acid” (priority 1975, dated 1977):

System: Acinetobacter tartarogenes KB-112
Assay: Effect of nonionic surfactant (0.1 %) on conversion of calcium cis-epoxysuccinate to L(+)-tartaric acid
Assay type: cell-based
Settings: 30° C., 2 days; for Mole Yields (%) of L(+)-tartaric acid: cis-epoxysuccinate 40 % as free acid, particle size 60 micron, not added: 34; for Rate of Residues (%) of cis-epoxysuccinic acid: residue of 12 g as free acid = 100 %, not added: 64
Experimental: Acinetobacter tartarogenes KB-112 are used to inoculate 30 ml of culture medium, contained in the Erlenmeyer flask of 200 ml-capacity, which culture medium having been set up into such constitution that, to the basic culture medium which is composed of casamino acid (0.05 %), ammonium nitrate (0.1 %), dipotassium hydrogen phosphate (0.2 %), magnesium sulfate (0.05 %), ferrous sulfate (0.001 %), pH 7.0, various sorts of nonionic surfactants are added so that the respective kinds of surface active agents may come to the concentration of 0.1 %. And simultaneously, the crystals of calcium cis-epoxysuccinate (average particle size: 60 micron) is added, in such way that it may come to the final concentration of 40 % counted as the free acid; and the above mixture is subjected to rotatory shake culture at 30° C., and for 2 days, and thence being allowed to exert reaction effect. After the termination of reaction, and the crystals are collected by filtration and, after addition of sulfuric acid, subjected to centrifugal separator to eliminate the solid substances. Subsequently, the quantitative determinations are made, with respect to L(+)-tartaric acid, by depending upon the optical rotation at 436 mμ; and with respect to the remaining cis-epoxysuccinic acid, by using Payne & Williams Method (G. B. Payne and P. H. Williams: Journal of Organic Chemistry, 24, 54, (1959)).

Sorbitan monooleate [NIKKOL SR-10] was tested, and the “Mole Yields (%) of L(+)-tartaric acid” value was 45% and the “Rate of Residues (%) of cis-epoxysuccinic acid” value was 52%.

For “Propyleneglycol monostearate [NIKKOL PMS-SE]”, the “Mole Yields (%) of L(+)-tartaric acid” value was 46% and the “Rate of Residues (%) of cis-epoxysuccinic acid” value was 50%.

In the case of `CCCCCCCCCCCCCCCCCC(=O)OCC(O)CO` (stereo not drawn) [NIKKOL MGS-C, Glyceryl monostearate], the “Mole Yields (%) of L(+)-tartaric acid” value is reported as 48% and the “Rate of Residues (%) of cis-epoxysuccinic acid” value is reported as 47%.
